Laboratory results: US6737383B1, “Herbicidal oxadiazolidines” (priority 1999, dated 2004)

Experiments:
blackgrass = assay: Test E blackgrass; type: in vivo, Alopecurus myosuroides; conditions: Postemergence; for Plant response rating, Blackgrass: 0 to 100 scale; for Blackgrass plant response rating: Rate 250 g/ha, 0 to 100 scale where 0 is no effect and 100 is complete control
Summary of the method: (§1)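 For postemergence, sowings are timed so plants reach the 1- to 4-leaf stage at spraying. Test compound is applied in a surfactant-containing solvent mixture that is non-phytotoxic. Response is judged by eye against untreated controls after approximately 21 to 28 days.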

sunflower = assay: Test E sunflower; type: in vivo, Helianthus annuus; conditions: Postemergence; for Plant response rating, Sunflower: 0 to 100 scale; for Sunflower plant response rating: Rate 250 g/ha, 0 to 100 scale where 0 is no effect and 100 is complete control
Description: […] All plant species were grown using normal greenhouse practices. Crop and weed species include annual bluegrass (Poa annua), blackgrass (Alopecurus myosuroides), black nightshade (Solanum nigra), chickweed (Stellaria media), common poppy (Papaver rhoeas), deadnettle (Lamium amplexicaule), downy brome (Bromus tectorum), field violet (Viola arvensis), galium (Galium aparine), green foxtail (Setaria viridis), Italian ryegrass (Lolium multiflorum), jointed goatgrass (Aegilops cylindrica), kochia (Kochia scoparia), lambsquarters (Chenopodium album), littleseed canarygrass (Phalaris minor), rape (Brassica napus), redroot pigweed (Amaranthus retroflexus), Russian thistle (Salsola kali), scentless chamomile (Matricaria inodora), spring barley (Hordeum vulgare), sugar beet (Beta vulgaris), sunflower (Helianthus annuus), ivyleaf speedwell (Veronica hederaefolia), spring wheat (Triticum aestivum), winter wheat (Triticum aestivum), wild buckwheat (Polygonum convolvulus), wild mustard (Sinapis arvensis), wild oat (Avena fatua), windgrass (Apera spica-venti) and winter barley (Hordeum vulgare).
(§2) Treated plants and untreated controls were maintained in a greenhouse for approximately 21 to 28 days, after which all treated plants were compared to untreated controls and visually evaluated. […] A dash response (-) means no test result.

bermuda-grass = assay: Test D bermudagrass; type: in vivo, Cynodon dactylon; conditions: Postemergence, 0 to 100 scale
jointed goatgrass [1] = assay: Test E jointed goatgrass; type: in vivo, Aegilops cylindrica; conditions: Preemergence; for Jointed goatgra plant response rating (0 to 100 scale): Rate 250 g/ha
Russian thistle = assay: Test E Russian thistle; type: in vivo, Salsola kali; conditions: Postemergence; for Plant response rating, Russian thistle: 0 to 100 scale; for Russian thistle plant response rating: Rate 250 g/ha, 0 to 100 scale where 0 is no effect and 100 is complete control
Description: […] A mixture of sandy loam soil and greenhouse potting mix in a 60:40 ratio was used for the postemergence test.
(§3) Plantings of these crops and weed species were adjusted to produce plants of appropriate size for the postemergence test. All plant species were grown using normal greenhouse practices. Crop and weed species include annual bluegrass (Poa annua), blackgrass (Alopecurus myosuroides), black nightshade (Solanum nigra), chickweed (Stellaria media), common poppy (Papaver rhoeas), deadnettle (Lamium amplexicaule), downy brome (Bromus tectorum), field violet (Viola arvensis), galium (Galium aparine), green foxtail (Setaria viridis), Italian ryegrass (Lolium multiflorum), jointed goatgrass (Aegilops cylindrica), kochia (Kochia scoparia), lambsquarters (Chenopodium album), littleseed canarygrass (Phalaris minor), rape (Brassica napus), redroot pigweed (Amaranthus retroflexus), Russian thistle (Salsola kali), scentless chamomile (Matricaria inodora), spring barley (Hordeum vulgare), sugar beet (Beta vulgaris), sunflower (Helianthus annuus), ivyleaf speedwell (Veronica hederaefolia), spring wheat (Triticum aestivum), winter wheat (Triticum aestivum), wild buckwheat (Polygonum convolvulus), wild mustard (Sinapis arvensis), wild oat (Avena fatua), windgrass (Apera spica-venti) and winter barley (Hordeum vulgare).
as §2

purple nutsedge = assay: Test D purple nutsedge; type: in vivo, Cyperus rotundus; conditions: Postemergence, 0 to 100 scale
downy brome = assay: Test E downy brome; type: in vivo, Bromus tectorum; conditions: Preemergence; for Downy brome plant response rating (0 to 100 scale): Rate 250 g/ha
fall panicum = assay: Test C postemergence fall panicum; type: in vivo, Panicum dichotomiflorum; conditions: 0 to 100 scale, 0 no effect, 100 complete control
Description: (§4) Compounds evaluated in this test were formulated in a non-phytotoxic solvent mixture which included a surfactant and applied to plants that were grown for various periods of time before treatment (postemergence application). A mixture of sandy loam soil and greenhouse potting mix in a 60:40 ratio was used for the postemergence test.
Plantings of these crops and weed species were adjusted to produce plants of appropriate size for the postemergence test. All plant species were grown using normal greenhouse practices. Crop and weed species include arrowleaf sida (Sida rhombifolia), barnyardgrass (Echinochloa crus-galli), cocklebur (Xanthium strumarium), common ragweed (Ambrosia elatior), corn (Zea mays), cotton (Gossypium hirsutum), eastern black nightshade (Solanum ptycanthum), fall panicum (Panicum dichotomiflorum), field bindweed (Convolvulus arvensis), giant foxtail (Setaria faberii), hairy beggarticks (Bidens pilosa), ivyleaf morningglory (Ipomoea hederacea), johnsongrass (Sorghum halepense), ladysthumb smartweed (Polygonum persicaria), lambsquarters (Chenopodium album), large crabgrass (Digitaria sanguinalis), purple nutsedge (Cyperus rotundus), redroot pigweed (Amaranthus retroflexus), soybean (Glycine max), surinam grass (Brachiaria decumbens), velvetleaf (Abutilon theophrasti) and wild poinsettia (Euphorbia heterophylla).
Treated plants and untreated controls were maintained in a greenhouse for approximately 14, to 21 days, after which all treated plants were compared to untreated controls and visually evaluated. Plant response ratings, summarized in Table C, were based upon a 0 to 100 scale where 0 was no effect and 100 was complete control. A dash response (−) means no test result.

annual bluegrass = assay: Test E annual bluegrass; type: in vivo, Poa annua; conditions: Preemergence; for Annual bluegras plant response rating (0 to 100 scale): Rate 250 g/ha
Green foxtail = assay: Test D green foxtail; type: in vivo; conditions: Postemergence, 0 to 100 scale, 0 no injury, 100 complete control
sugar beet = assay: Test E sugar beet; type: in vivo, Beta vulgaris; conditions: Preemergence; for Sugar beet plant response rating (0 to 100 scale): Rate 250 g/ha
field violet = assay: Test E field violet; type: in vivo, Viola arvensis; conditions: Postemergence; for Plant response rating, Field violet: 0 to 100 scale; for Field violet plant response rating: Rate 250 g/ha, 0 to 100 scale where 0 is no effect and 100 is complete control
Summary of the method: as §1

wild buckwheat = assay: Test E wild buckwheat; type: in vivo, Polygonum convolvulus; conditions: Postemergence; for Plant response rating, Wild buckwheat: 0 to 100 scale; for Wild buckwheat plant response rating: Rate 250 g/ha, 0 to 100 scale where 0 is no effect and 100 is complete control
Description: as §4, with “in the 1- to 4-leaf stage” for “grown for various periods of time before treatment”
as §3, §2

jointed goatgrass [2] = assay: Test E jointed goatgrass; type: in vivo, Aegilops cylindrica; conditions: Postemergence; for Plant response rating, Jointed goatgra: 0 to 100 scale; for Jointed goatgra plant response rating: Rate 250 g/ha, 0 to 100 scale where 0 is no effect and 100 is complete control
Description: as §4, with “in the 1- to 4-leaf stage” for “grown for various periods of time before treatment”
as §3, §2

[3] = Rate 125 g/ha, 0 is no effect, 100 is complete control
[4] = Rate 500 g/ha, 0 is no effect, 100 is complete control
[5] = Rate 16 g/ha, 0 no injury, 100 complete control
[6] = Rate 32 g/ha, 0 no injury, 100 complete control
[7] = Rate 64 g/ha, 0 no injury, 100 complete control
[8] = Rate 125 g/ha, 0 no injury, 100 complete control
[9] = Rate 125 g/ha, 0 to 100 scale (0 no effect, 100 complete control)
[10] = Rate 500 g/ha, 0 to 100 scale where 0 is no effect and 100 is complete control

CC(C)N(C(=O)n1oc(=O)n(C2CC2)c1=O)c1ccc(F)cc1 [Compound 242]
90: Plant response rating, Bermudagrass (bermuda-grass; [5]) | Plant response rating, Jointed goatgra (jointed goatgrass [1]; [10]) | Plant response rating Fall panicum (fall panicum; Rate 560 g/ha) | Plant response rating Fall panicum (fall panicum; Rate 1120 g/ha)
65: Plant response rating, Jointed goatgra (jointed goatgrass [1]; [9]) | Plant response rating, Sugar beet (sugar beet; [10])
80: Jointed goatgra plant response rating (0 to 100 scale) (jointed goatgrass [1])
40: Plant response rating, Field violet (field violet; [4]) | Plant response rating, Jointed goatgra (jointed goatgrass [2]; [4])
20: Plant response rating, Sunflower (sunflower; [4])
0: Plant response rating, Blackgrass (blackgrass; [3]) | Sunflower plant response rating (sunflower) | Plant response rating, Russian thistle (Russian thistle; [3]) | Russian thistle plant response rating (Russian thistle) | Plant response rating, Russian thistle (Russian thistle; [4]) | Plant response rating, Purple nutsedge (purple nutsedge; [5]) | Plant response rating, Purple nutsedge (purple nutsedge; [6]) | Purple nutsedge plant response rating (purple nutsedge; [7]) | Purple nutsedge plant response rating (purple nutsedge; [8]) | Field violet plant response rating (field violet) | Plant response rating, Wild buckwheat (wild buckwheat; [4]) | Plant response rating, Jointed goatgra (jointed goatgrass [2]; [3]) | Jointed goatgra plant response rating (jointed goatgrass [2])
70: Plant response rating, Downy brome (downy brome; [9])
100: Plant response rating, Bermudagrass (bermuda-grass; [6]) | Plant response rating, Bermudagrass (bermuda-grass; [7]) | Plant response rating, Bermudagrass (bermuda-grass; [8]) | Plant response rating, Bermudagrass (bermuda-grass; Rate 250 g/ha) | Plant response rating, Purple nutsedge (purple nutsedge; Rate 250 g/ha) | Downy brome plant response rating (0 to 100 scale) (downy brome) | Plant response rating, Downy brome (downy brome; [10]) | Plant response rating, Annual bluegras (annual bluegrass; [9]) | Annual bluegras plant response rating (0 to 100 scale) (annual bluegrass) | Plant response rating, Annual bluegras (annual bluegrass; [10]) | Plant response rating, Green foxtail (Green foxtail; Rate 32 g/ha)
55: Plant response rating, Jointed goatgra (jointed goatgrass [2]; Rate 62 g/ha)
85: Plant response rating Fall panicum (fall panicum; Rate 280 g/ha)
30: Plant response rating Fall panicum (fall panicum; Rate 140 g/ha) | Plant response rating, Green foxtail (Green foxtail; Rate 16 g/ha) | Plant response rating, Sugar beet (sugar beet; [9]) | Plant response rating, Field violet (field violet; Rate 62 g/ha)
10: Blackgrass plant response rating (blackgrass) | Plant response rating, Sunflower (sunflower; Rate 62 g/ha) | Plant response rating, Sunflower (sunflower; [3]) | Plant response rating, Wild buckwheat (wild buckwheat; [3]) | Wild buckwheat plant response rating (wild buckwheat)
60: Plant response rating, Blackgrass (blackgrass; Rate 62 g/ha) | Plant response rating, Field violet (field violet; [3])
50: Plant response rating, Blackgrass (blackgrass; [4]) | Plant response rating, Russian thistle (Russian thistle; Rate 62 g/ha) | Sugar beet plant response rating (0 to 100 scale) (sugar beet) | Plant response rating, Wild buckwheat (wild buckwheat; Rate 62 g/ha)

CC(C)N(C(=O)n1oc(=O)n(C)c1=O)c1ccc(F)cc1 [Compound 138]
70: Annual bluegras plant response rating (0 to 100 scale) (annual bluegrass)
60: Plant response rating Fall panicum (fall panicum; Rate 560 g/ha)
50: Sugar beet plant response rating (0 to 100 scale) (sugar beet)
30: Field violet plant response rating (field violet)
80: Jointed goatgra plant response rating (0 to 100 scale) (jointed goatgrass [1])
0: Blackgrass plant response rating (blackgrass) | Plant response rating, Sunflower (sunflower; Rate 125 g/ha) | Sunflower plant response rating (sunflower) | Plant response rating, Russian thistle (Russian thistle; Rate 125 g/ha) | Russian thistle plant response rating (Russian thistle) | Plant response rating Fall panicum (fall panicum; Rate 140 g/ha) | Plant response rating Fall panicum (fall panicum; Rate 280 g/ha) | Plant response rating, Sugar beet (sugar beet; [9]) | Plant response rating, Wild buckwheat (wild buckwheat; Rate 125 g/ha) | Wild buckwheat plant response rating (wild buckwheat) | Plant response rating, Jointed goatgra (jointed goatgrass [2]; Rate 125 g/ha) | Jointed goatgra plant response rating (jointed goatgrass [2])
90: Plant response rating, Downy brome (downy brome; [9]) | Downy brome plant response rating (0 to 100 scale) (downy brome) | Plant response rating Fall panicum (fall panicum; Rate 1120 g/ha)
65: Plant response rating, Jointed goatgra (jointed goatgrass [1]; [9])
10: Plant response rating, Field violet (field violet; Rate 125 g/ha)
20: Plant response rating, Blackgrass (blackgrass; Rate 125 g/ha)

CC(C)N(C(=O)n1oc(=O)n(C2CCCCCC2)c1=O)c1ccc(F)cc1F [Compound 342]
90: Plant response rating, Bermudagrass (bermuda-grass; [7])
0: Plant response rating, Purple nutsedge (purple nutsedge; [5]) | Plant response rating, Purple nutsedge (purple nutsedge; [6]) | Purple nutsedge plant response rating (purple nutsedge; [7]) | Purple nutsedge plant response rating (purple nutsedge; [8]) | Plant response rating, Purple nutsedge (purple nutsedge; Rate 250 g/ha) | Plant response rating, Green foxtail (Green foxtail; Rate 16 g/ha) | Plant response rating, Green foxtail (Green foxtail; Rate 32 g/ha)
30: Plant response rating, Bermudagrass (bermuda-grass; [6])
100: Plant response rating, Bermudagrass (bermuda-grass; [8]) | Plant response rating, Bermudagrass (bermuda-grass; Rate 250 g/ha)
20: Plant response rating, Bermudagrass (bermuda-grass; [5])
